Measured values from ChEMBL document CHEMBL5518240 (J Med Chem, 2024).
Active and inactive are the calls of the source. No cut-off for these calls is given here.

Tests used:
[1] = target: T1, Protein cereblon/Histone acetyltransferase p300 (Homo sapiens, UniProt Q09472+Q96SW2); assay: PROTAC activity at p300/CRBN in human VCaP cells assessed as protein degradation incubated for 4 hrs by Western blot analysis; format: cell-based
[2] = target: T2, Protein cereblon/CREB-binding protein (Homo sapiens, UniProt Q92793+Q96SW2); assay: PROTAC activity at CBP/CRBN in AR positive human VCaP cells assessed as maximal protein degradation at 1.4 nM incubated for 4 hrs by Western blot analysis relative to control; format: cell-based
[3] = target: T2, Protein cereblon/CREB-binding protein; assay: PROTAC activity at CBP/CRBN in AR positive human VCaP cells assessed as maximal protein degradation at 4.1 nM incubated for 4 hrs by Western blot analysis relative to control; format: cell-based
[4] = target: T2, Protein cereblon/CREB-binding protein; assay: PROTAC activity at CBP/CRBN in AR positive human VCaP cells assessed as maximal protein degradation at 37 nM incubated for 4 hrs by Western blot analysis relative to control; format: cell-based
[5] = target: T1, Protein cereblon/Histone acetyltransferase p300; assay: PROTAC activity at p300/CRBN in AR positive human VCaP cells assessed as maximal protein degradation at 111 nM incubated for 4 hrs by Western blot analysis relative to control; format: cell-based
Target sequence in this assay (Q09472 2-2414 limits assumed): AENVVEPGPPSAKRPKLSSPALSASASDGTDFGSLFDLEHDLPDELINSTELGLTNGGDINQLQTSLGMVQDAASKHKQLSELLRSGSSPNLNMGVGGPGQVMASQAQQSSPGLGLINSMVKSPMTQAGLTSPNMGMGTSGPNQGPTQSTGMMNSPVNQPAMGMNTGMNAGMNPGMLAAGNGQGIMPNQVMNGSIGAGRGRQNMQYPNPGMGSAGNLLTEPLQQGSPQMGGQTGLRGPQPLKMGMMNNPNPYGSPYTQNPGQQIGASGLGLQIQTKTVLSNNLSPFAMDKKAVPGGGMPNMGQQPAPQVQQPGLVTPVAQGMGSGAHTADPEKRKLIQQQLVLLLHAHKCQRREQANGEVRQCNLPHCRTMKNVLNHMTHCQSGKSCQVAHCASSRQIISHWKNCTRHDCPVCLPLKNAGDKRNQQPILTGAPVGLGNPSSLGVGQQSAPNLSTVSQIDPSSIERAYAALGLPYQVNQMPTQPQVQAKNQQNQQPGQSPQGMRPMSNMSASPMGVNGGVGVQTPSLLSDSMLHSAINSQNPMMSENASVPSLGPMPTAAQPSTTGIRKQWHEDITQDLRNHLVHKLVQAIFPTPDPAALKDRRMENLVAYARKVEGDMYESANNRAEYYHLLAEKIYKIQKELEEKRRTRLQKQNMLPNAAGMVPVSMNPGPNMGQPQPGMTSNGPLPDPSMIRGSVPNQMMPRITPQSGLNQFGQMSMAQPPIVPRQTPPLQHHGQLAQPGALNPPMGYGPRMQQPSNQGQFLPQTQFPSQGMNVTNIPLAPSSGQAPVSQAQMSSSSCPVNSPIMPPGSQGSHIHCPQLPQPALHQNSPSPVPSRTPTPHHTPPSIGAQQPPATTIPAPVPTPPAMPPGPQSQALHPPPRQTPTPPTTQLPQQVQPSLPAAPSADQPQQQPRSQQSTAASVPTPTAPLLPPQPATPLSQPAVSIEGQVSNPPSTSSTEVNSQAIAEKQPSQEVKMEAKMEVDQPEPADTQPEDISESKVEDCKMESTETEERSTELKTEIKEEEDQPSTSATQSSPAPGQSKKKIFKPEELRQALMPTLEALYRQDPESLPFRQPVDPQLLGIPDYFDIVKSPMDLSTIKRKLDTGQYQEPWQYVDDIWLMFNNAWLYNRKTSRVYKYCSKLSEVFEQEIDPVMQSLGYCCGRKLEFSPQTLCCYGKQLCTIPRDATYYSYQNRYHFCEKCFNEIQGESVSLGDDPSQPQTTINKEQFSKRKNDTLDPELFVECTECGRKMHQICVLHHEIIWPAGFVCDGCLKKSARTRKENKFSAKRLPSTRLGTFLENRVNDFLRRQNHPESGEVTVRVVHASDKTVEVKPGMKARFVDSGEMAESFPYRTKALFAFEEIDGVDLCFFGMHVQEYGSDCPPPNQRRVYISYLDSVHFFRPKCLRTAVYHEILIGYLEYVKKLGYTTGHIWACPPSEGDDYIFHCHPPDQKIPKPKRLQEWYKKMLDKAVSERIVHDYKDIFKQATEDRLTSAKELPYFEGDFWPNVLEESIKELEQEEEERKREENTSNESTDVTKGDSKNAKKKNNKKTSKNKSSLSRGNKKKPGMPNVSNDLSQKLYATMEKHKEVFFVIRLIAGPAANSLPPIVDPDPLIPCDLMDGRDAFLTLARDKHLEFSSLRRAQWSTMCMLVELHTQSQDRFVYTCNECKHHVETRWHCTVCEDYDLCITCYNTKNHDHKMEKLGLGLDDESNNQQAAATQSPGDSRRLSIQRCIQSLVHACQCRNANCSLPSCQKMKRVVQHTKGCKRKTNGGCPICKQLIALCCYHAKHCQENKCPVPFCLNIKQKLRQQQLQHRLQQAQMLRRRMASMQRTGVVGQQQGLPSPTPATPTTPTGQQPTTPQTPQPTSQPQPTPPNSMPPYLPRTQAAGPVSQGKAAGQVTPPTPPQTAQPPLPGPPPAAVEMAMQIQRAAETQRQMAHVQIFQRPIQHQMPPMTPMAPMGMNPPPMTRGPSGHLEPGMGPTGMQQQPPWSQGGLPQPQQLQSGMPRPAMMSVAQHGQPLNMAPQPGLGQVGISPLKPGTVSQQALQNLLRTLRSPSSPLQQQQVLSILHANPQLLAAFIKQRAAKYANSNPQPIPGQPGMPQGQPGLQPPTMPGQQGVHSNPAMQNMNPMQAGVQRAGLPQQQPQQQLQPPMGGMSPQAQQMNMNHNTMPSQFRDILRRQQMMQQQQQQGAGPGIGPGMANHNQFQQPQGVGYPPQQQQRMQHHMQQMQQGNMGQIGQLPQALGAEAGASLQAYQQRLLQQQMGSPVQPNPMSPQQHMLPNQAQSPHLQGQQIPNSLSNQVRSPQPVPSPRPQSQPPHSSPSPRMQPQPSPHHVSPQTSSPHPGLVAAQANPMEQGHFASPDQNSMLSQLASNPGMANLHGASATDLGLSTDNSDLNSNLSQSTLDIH
Target sequence in this assay (Q96SW2 whole entry partner): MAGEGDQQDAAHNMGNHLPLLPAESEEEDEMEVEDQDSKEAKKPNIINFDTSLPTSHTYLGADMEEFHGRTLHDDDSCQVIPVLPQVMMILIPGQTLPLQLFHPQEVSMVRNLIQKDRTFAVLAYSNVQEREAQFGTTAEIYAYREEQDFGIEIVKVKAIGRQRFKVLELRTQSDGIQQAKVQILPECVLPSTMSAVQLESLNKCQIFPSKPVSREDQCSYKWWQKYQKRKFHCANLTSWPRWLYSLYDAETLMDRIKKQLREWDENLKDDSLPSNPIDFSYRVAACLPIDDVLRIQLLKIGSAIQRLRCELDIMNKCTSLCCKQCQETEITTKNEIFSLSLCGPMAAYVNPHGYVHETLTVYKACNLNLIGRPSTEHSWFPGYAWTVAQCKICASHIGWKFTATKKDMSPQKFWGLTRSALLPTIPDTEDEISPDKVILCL

[6] = target: T1, Protein cereblon/Histone acetyltransferase p300; assay: PROTAC activity at p300/CRBN in AR positive human VCaP cells assessed as maximal protein degradation at 333 nM incubated for 4 hrs by Western blot analysis relative to control; format: cell-based
Target sequence in this assay (Q09472 2-2414 limits assumed): as the sequence (Q09472 2-2414 limits assumed) above
Target sequence in this assay (Q96SW2 whole entry partner): as the sequence (Q96SW2 whole entry partner) above

[7] = Oral bioavailability in male ICR mouse at 3 mg/kg measured upto 24 hrs by LC-MS/MS analysis; format: ADME, organism-based; settings: in vivo
[8] = Apparent permeability coefficient across basolateral to apical side in human Caco-2 cells at 10 uM incubated for 120 mins by LC-MS/MS analysis; format: ADME, cell-based; settings: caco-2, 2 h
[9] = target: T2, Protein cereblon/CREB-binding protein; assay: PROTAC activity at CBP/CRBN in human LNCaP cells assessed as maximal protein degradation at 1 uM incubated for 4 hrs by Western blot analysis relative to control; format: cell-based
[10] = target: T1, Protein cereblon/Histone acetyltransferase p300; assay: PROTAC activity at p300/CRBN in human LNCaP cells assessed as maximal protein degradation at 1 uM incubated for 4 hrs by Western blot analysis relative to control; format: cell-based
Target sequence in this assay (Q09472 2-2414 limits assumed): as the sequence (Q09472 2-2414 limits assumed) above
Target sequence in this assay (Q96SW2 whole entry partner): as the sequence (Q96SW2 whole entry partner) above

[11] = target: T2, Protein cereblon/CREB-binding protein; assay: PROTAC activity at CBP/CRBN in human 22Rv1 cells assessed as protein degradation incubated for 4 hrs by Western blot analysis; format: cell-based
[12] = target: T2, Protein cereblon/CREB-binding protein; assay: PROTAC activity at CBP/CRBN in human 22Rv1 cells assessed as maximal protein degradation at 1 uM incubated for 4 hrs by Western blot analysis relative to control; format: cell-based
[13] = target: T1, Protein cereblon/Histone acetyltransferase p300; assay: PROTAC activity at p300/CRBN in human 22Rv1 cells assessed as maximal protein degradation at 1 uM incubated for 4 hrs by Western blot analysis relative to control; format: cell-based
Target sequence in this assay (Q09472 2-2414 limits assumed): as the sequence (Q09472 2-2414 limits assumed) above
Target sequence in this assay (Q96SW2 whole entry partner): as the sequence (Q96SW2 whole entry partner) above

[14] = test system: VCaP; assay: Antiproliferative activity against AR positive human VCaP cells assessed inhibition of cell growth measured after 4 days by CellTiter-Glo Luminescent cell viability assay; format: functional, cell-based; settings: 96 h
[15] = test system: LNCaP; assay: Antiproliferative activity against AR positive human LNCaP cells assessed inhibition of cell growth measured after 4 days by CellTiter-Glo Luminescent cell viability assay; format: functional, cell-based; settings: 96 h
[16] = test system: VCaP; assay: Potency index, ratio of GNE-049 IC50 to test compound IC50 for antiproliferative activity against AR positive human VCaP cells assessed inhibition of cell growth measured after 4 days by CellTiter-Glo Luminescent cell viability assay; format: functional; settings: time 4 day
[17] = test system: CWR22R; assay: Potency index, ratio of GNE-049 IC50 to test compound IC50 for antiproliferative activity against AR positive human 22Rv1 cells assessed inhibition of cell growth measured after 4 days by CellTiter-Glo Luminescent cell viability assay; format: functional; settings: time 4 day
[18] = test system: LNCaP; assay: Potency index, ratio of GNE-049 IC50 to test compound IC50 for antiproliferative activity against AR positive human LNCaP cells assessed inhibition of cell growth measured after 4 days by CellTiter-Glo Luminescent cell viability assay; format: functional; settings: time 4 day
[19] = test system: CWR22R; assay: Effect on other proteins on global level in human 22Rv1 cells at 100 nM incubated for 4 hrs by multiplexed quantitative proteomics analysis relative to control; format: functional, cell-based
[20] = test system: VCaP; assay: Reduction in AR gene expression in AR positive human VCaP cells assessed as reduction in mRNA level measured after 6 hrs by qRT-PCT analysis relative to control; format: functional, cell-based; settings: dose 0.1-1000 nM
[21] = test system: LNCaP; assay: Reduction in KLK3 gene expression in AR positive human LNCaP cells assessed as reduction in mRNA level measured after 6 hrs by qRT-PCT analysis relative to control; format: functional, cell-based; settings: dose 0.1-1000 nM
[22] = test system: LNCaP; assay: Reduction in c-Myc gene expression in AR positive human LNCaP cells assessed as reduction in mRNA level measured after 6 hrs by qRT-PCT analysis relative to control; format: functional, cell-based; settings: dose 0.1-1000 nM
[23] = Reduction in KLK3 gene expression in AR positive human VCaP cells assessed as reduction in mRNA level at 1 nM measured after 6 hrs by qRT-PCT analysis relative to control; format: functional
[24] = Reduction in c-Myc gene expression in AR positive human VCaP cells assessed as reduction in mRNA level at 1 nM measured after 6 hrs by qRT-PCT analysis relative to control; format: functional
[25] = Reduction in KLK3 gene expression in AR positive human 22Rv1 cells assessed as reduction in mRNA level at 10 nM measured after 6 hrs by qRT-PCT analysis relative to control; format: functional, CWR22R
[26] = Reduction in AR gene expression in AR positive human 22Rv1 cells assessed as reduction in mRNA level at 10 nM measured after 6 hrs by qRT-PCT analysis relative to control; format: functional, CWR22R
[27] = target: T2, Protein cereblon/CREB-binding protein; assay: In vivo PROTAC activity at CBP/CRBN in human VCaP cells xenografted in SCID mouse assessed as reduction in CBP protein at 1 mg/kg, po measured after 24 hrs; format: functional, organism-based; parameters: scale not given: the % may be the effect or the level left
[28] = target: T2, Protein cereblon/CREB-binding protein; assay: In vivo PROTAC activity at CBP/CRBN in human VCaP cells xenografted in SCID mouse assessed as reduction in CBP protein at 3 mg/kg, po measured after 3 hrs; format: functional, organism-based; parameters: scale not given: the % may be the effect or the level left
[29] = Plasma concentration in CB17 SCID mouse xenografted with human VCaP cells at 1 mg/kg, po measured after 3 hrs by LC-MS/MS analysis; format: ADME, organism-based
[30] = Plasma concentration in CB17 SCID mouse xenografted with human VCaP cells at 1 mg/kg, po measured after 24 hrs by LC-MS/MS analysis; format: ADME, organism-based
[31] = Plasma concentration in CB17 SCID mouse xenografted with human VCaP cells at 3 mg/kg, po measured after 24 hrs by LC-MS/MS analysis; format: ADME, organism-based
[32] = Drug exposure in CB17 SCID mouse xenografted with human VCaP cells assessed compound concentration in tumor at 1 mg/kg, po measured after 3 hrs by LC-MS/MS analysis; format: ADME, organism-based, Neoplasm; settings: read-out: Drug uptake
[33] = Drug exposure in CB17 SCID mouse xenografted with human VCaP cells assessed compound concentration in tumor at 3 mg/kg, po measured after 24 hrs by LC-MS/MS analysis; format: ADME, organism-based, Neoplasm; settings: in vivo, BLD = below limit of detection
[34] = test system: VCaP; assay: Antitumor activity against human VCaP cells xenografted in CB17 SCID mouse model assessed as tumor growth inhibition at 0.3 mg/kg, po qd scheduled 5 days in a week measured on day 63; format: functional; settings: 1512 h, time 63 day, read-out: TGI

CC(=O)N1CCc2c(c(N3CCCc4cc(-c5cnn(C)c5)c(C(F)F)cc43)nn2[C@H]2CC[C@H](CN3CCN(c4ccc5c(c4)C(=O)N(C4CCC(=O)NC4=O)C5=O)CC3)CC2)C1 (some centres undefined)
DC50 [1]: 200 pM
Activity [2]: 91%
Activity [3]: 97%
Activity [4]: 98%
Activity [5]: 100%
Activity [6]: 94%
bioavailability [7]: 50%
Papp [8]: 2.3 10^-6 cm/s
Emax [9]: 90%
Emax [10]: 95%
DC50 [11]: 200 pM
Emax [12]: 93%
Emax [13]: 91%
IC50 [14]: 2000 pM
IC50 [15]: 1600 pM
Ratio IC50 [16]: 100
Ratio IC50 [17]: 100
Ratio IC50 [18]: 100
Activity [19]: inactive
inhibition [20]: Dose-Dependent Effect
inhibition [21]: Dose-Dependent Effect
inhibition [22]: Dose-Dependent Effect
inhibition at 0.001 µM [23]: 57%
inhibition at 0.001 µM [24]: > 95%
inhibition at 0.01 µM [25]: 75%
inhibition at 0.01 µM [26]: 43%
Activity [27]: > 95%
Activity [28]: > 95%
concentration at 3 h [29]: 95 ng/mL
concentration at 24 h [30]: 16 ng/mL
concentration at 24 h [31]: 21 ng/mL
concentration at 3 h [32]: 30 ng/mL
Drug uptake [33]: Bld
inhibition in vivo at 0.3 mg/kg [34]: 73%
